Experimental data: patent US9878006B2, “Treatment of obesity and obesity related disorders by pharmalogical targeting of Kv1.3 potassium channels” (The Regents of the University of California, priority 2011, dated 2018)
Where two headings read alike, the source gives them in different places.

How the values were obtained:
skeletal muscle = assay: PET imaging, 18FDG uptake by skeletal muscle; format: in vivo, mice; settings: FIG. 7
Method: (§1) ^18F-FDG was purchased from PETNET. Mice were fasted overnight before CT or PET scan. For PET scan animals were injected with 0.1-0.2 mCi of ^18F-FDG in sterile saline. Approximately, 0.02 to 0.05 ml was administered intravenously (tail vein) under 2% Isoflurane and animal was allowed to remain awake for 60 mins in their cages to allow distribution and uptake of ^18F-FDG. During the scan 2% isoflurane was used and the mouse was laid in the supine position on the scanner. All PET acquisitions were performed with an Inveon (Siemens Medical Solutions) preclinical PET scanner. PET data was acquired for 30 min. When used with PET scanner CT data was obtained immediately after PET imaging without changing the position of the animal. PET images were corrected for attenuation, scatter, randoms, and dead time. Images were reconstructed as 128×128 matrices using a fast MAP algorithm with a smoothing factor of 0.1. CT HU of BAT and WAT was obtained by calibrating the CT data using linear interpolation of water CT Density (CT HU=0) and air CT density (CT HU=−1000). After the scan procedure, animals were allowed to recover from anesthesia, placed in their cages and monitored for normal recovery.
(§2) All scanning data was acquired in full list mode and sorted into a single frame, 3 dimensional sinogram, which was rebinned using a Fourier rebinning algorithm. […]

brown fat [1] = settings: man; 1 mg/kg; cited from earlier work
brown fat [2] = settings: rats; 5 mg/kg body wt; cited from earlier work
brown adipose tissue = assay: PET scan, 18FDG uptake by brown adipose tissue; format: in vivo, mice
Method: as §1, §2

[3] = system: brown adipose tissue cells; settings: potassium channel blockade; cited from earlier work
[4] = diet-induced obesity model in mice (high fat/high fructose diet): weight gain and blood glucose; format: in vivo, C57BL/6 mice; settings: 20, 100 or 500 μg/kg s.c. on alternate days
Method: The accompanying figures show the obesity-deterring efficacy of ShK-186 in the diet-induced obesity model in C57BL/J mice (diet composed of 21% fat+60% fructose-water). 8 week old C57BL/6 mice were purchased from Harlan Co. (Indianapolis, Ind.). They were fed a specialized high fat diet (#TD88137; 21% fat) purchased from Harlan Co. (Indianapolis, Ind.), and they received a 60% fructose solution to drink. The mice were administered vehicle (P6N) or ShK-186 (20, 100 or 500 μg/kg) by subcutaneous injections on alternate days. Animals were weighed on alternate days. Blood glucose levels were monitored every 6 days by tail-vein sampling using an Accu-Chek compact glucometer from Roche. The animal experimental protocol was approved by the Institutional Animal Care and Use Committee at University of California, Irvine.
All mice received the high fat/high fructose diet throughout the trial. They received vehicle (P6N) or ShK-186 (20, 100 or 500 μg/kg) on alternate days by subcutaneous injection. The weight is normalized to the average weight at the start of the study. All the mice in this study were males. Using repeated measures ANOVA, the p value <0.0001 for all the ShK-186 doses.

[5] = CLAMS metabolic cages: feeding, drinking, RER, energy expenditure; format: in vivo, mice
Description: FIGS. 4A through 4D show feeding and drinking patterns of mice analyzed in negative-flow CLAMS (Comprehensive Lab Animal Monitoring system) metabolic cages. All the animals were habituated with the high fat/high fructose diet for at least 7 days prior to the metabolic cage studies. All animals were placed individually in each metabolic cage and habituated for two days under normal 12 hr. light-dark cycle.
Mice were acclimated for 2 days in the metabolic cages before the measurements were made.
FIGS. 5A through 5D show Respiratory Exchange Ratio (RER) and energy expenditure in vehicle controls (n-2) and ShK-186-treated mice (n=2). RER of 0.70 is when a subject is metabolizing pure fat, whereas RER of 1.0 is when a subject is metabolizing pure carbohydrate.

white adipose tissue = assay: CT scan of white adipose tissue in the diet-induced obesity model; format: in vivo, C57BL/6 mice; settings: 500 μg/kg; after 45 days on high fat/high fructose diet; vs vehicle; p=0.000708; FIG. 3A/3B
Method: Mice were fasted overnight before CT scans. All CT acquisitions were performed with an Inveon (Siemens Medical Solutions) preclinical CT scanner. During the scan 2% isoflurane was used and the mouse was laid in the supine position on the scanner. Images were reconstructed as 128×128 matrices using a fast MAP algorithm with a smoothing factor of 0.1. CT HU of WAT was obtained by calibrating the CT data using linear interpolation of water CT Density (CT HU=0) and air CT density (CT HU=−1000). After the scan procedure, animals were allowed to recover from anesthesia, placed in their cages and monitored for normal recovery. All scanning data was acquired in full list mode and sorted into a single frame, 3 dimensional sinogram, which was rebinned using a Fourier rebinning algorithm. The images were reconstructed using 2 dimensional filter back projection using a Hanning Filter with a Nyquist cut off at 0.5, and corrected for attenuation using the Co-57 attenuation scan data. All CT Data analysis was done using PMOD 3.0 software.

[6] = n=2, vs vehicle controls, FIG. 5A-5D

## CC(C)NCC(O)COc1cccc2ccccc12 (centres unmarked) [propranolol, reference compound]
Skeletal muscle; propranolol 5 mg/kg
  inhibition of ShK-186-increased 18FDG uptake by skeletal muscle: did not inhibit this uptake
Brown fat [1]
  18-fluoro-deoxyglucose uptake into brown fat: has the same effect
Brown fat [2]
  18-fluoro-deoxyglucose uptake into brown fat: eliminates ^18-fluoro-deoxyglucose uptake into brown fat
Brown adipose tissue; propranolol 5 m/kg, FIG. 6B
  inhibition of 18FDG uptake by brown adipose tissue: inhibited

## CC[N+](CC)(CC)CC [tetraethylammonium]
[3]
  metabolic response of brown adipose tissue cells to adrenergic stimulation: does not alter the metabolic response of brown adipose tissue cells to adrenergic stimulation

## p-phospho-Tyr-AEEAc-Arg-Ser-Cys-Ile-Asp-Thr-Ile-Pro-Lys-Ser-Arg-Cys-Thr-Ala-Phe-Gln-Cys-Lys-His-Ser-Met-Lys-Tyr-Arg-Leu-Ser-Phe-Cys-Arg-Lys-Thr-Cys-Gly-Thr-Cys [ShK-186]
[4]; measured every 6 days, FIG. 1B
  blood glucose levels: without changing blood glucose levels
[4]; vs vehicle, dose-dependent, p<0.0001 for all doses, FIG. 1A
  weight gain: significantly reduced weight gain
Skeletal muscle; ShK-186 at 20, 100 and 500 μg/kg
  18FDG uptake by skeletal muscle: increased ^18FDG uptake by skeletal muscle
[5]; given at onset of the measuring phase, controls feed and drink in dark cycle only, p<0.05 after first 24 hrs, FIG. 4A-4D
  feeding and drinking pattern: feed and drink during both dark and light cycles
[5]; n=2, especially during the light cycle, FIG. 5A-5D
  Respiratory Exchange Ratio (RER), substrate metabolized: metabolize more carbohydrate than fat
[5]; [6]
  energy expenditure during the day: greater energy expenditure during the day
  energy expenditure during the night: roughly equivalent energy expenditure during the night
White adipose tissue
  volume of white adipose tissue: significantly reduced the volume of white adipose tissue
Brown adipose tissue; ShK-186 at 100 and 500 μg/kg, FIG. 6A
  18FDG uptake by brown adipose tissue: induces ^18FDG-uptake by brown adipose tissue
